Columns and labels:
[1] = tested on: intracellular S. aureus strain ISP479C in human brain microvascular endothelial cells (hBMEC); assay: Intracellular S. aureus eradication assay in hBMEC; type: cell-based; details: 5 μg/ml, 1 h
From the text: FIGS. 5a-5e depict peptidoglycan hydrolase-protein transduction domain (PGH-PTD) eradication of intracellular S. aureus in cultured cells. Cultured cells were infected, treated with gentamicin to kill extracellular S. aureus, and then treated with the peptidoglycan hydrolases indicated. All results are standardized to the gentamicin (GENT) only control. Nomenclature of the peptidoglycan hydrolase constructs is as in FIG. 1. Asterisks indicate statistical significance detected with single factor ANOVA (α=0.05) with paired t-test posthoc analyses α=0.05 adjusted with Sidák correction for multiple comparisons (for all cases p<0.01). […] Error bars represent SEM. […] Yellow staining in the combined panel represents intracellular co-localization (in a single plane as determined by z-stack analysis) of both S. aureus and K-L-PTD1 (blue arrow). […]
Three similar intracellular S. aureus eradication assays from three different labs were optimized for (A) a cultured bovine mammary epithelial cell line (MAC-T, Nexia Biotechnologies, Quebec, Canada; Almeida, supra), (B) primary C57BL/6 mouse-derived osteoblasts (mOBs) (McCall et al. 2008. J. Bone Miner. Res. 23: 30-40) or (C) human brain microvascular endothelial cells (hBMEC; Stins, supra). […] The cell lysate was subjected to serial dilution plating, and the resultant CFUs were counted and normalized to the gentamicin control for each assay. […]

S. aureus strain ALR = assay: Rat nasal colonization model; type: in vivo, Wistar rats
From the text: FIGS. 1a-1c depict peptidoglycan hydrolase construct schematics, resistance development and effectiveness in eradicating S. aureus carriage in a rat colonization model. FIG. 1a is a schematic of the peptidoglycan hydrolase constructs. Domains: CHAP endopeptidase (CHAP, red box); N-acetylmuramoyl-L-alanine amidase (AMID, green box); M23 endopeptidase (PEP, blue oval); CBDs (LysK SH3b, gold diamond; lysostaphin SH3b, gold diamond with dot); protein transduction domain (PTD, blue circle); hexahistidine purification tag (His6). Domains are not to scale. Specific peptidoglycan cut sites are illustrated in FIG. 3a. FIG. 1b depicts in vitro antimicrobial resistance development. Engineered triple fusions K-L and L-K suppress antimicrobial resistance development compared to LysK (K), lysostaphin (L), or a combination of equimolar concentrations of both (L+K). Changes in Minimum Inhibitory Concentrations (MIC) are depicted as a fold-change at the tenth round of sublethal exposure compared to the first exposure, with the average fold-change of 4 replicates in red. Error bars=SEM. First exposure MICs: Lysostaphin, 0.77 μg/ml (27 nM); LysK, 47 μg/ml (840 nM); Lysostaphin and LysK (L+K) in combination 0.2 μg/ml (7 nM and 3 nM, respectively); triple fusion K-L, 7 μg/ml (97 nM); triple fusion L-K, 7.8 μg/ml (107 nM). FIG. 1c depicts reduction in colonization in a rat nasal carriage model. Rats were inoculated with S. aureus strain ALR on Day 1. After 5 days, the rats were treated twice daily for 3 days with 20 μl of a 10 mg/ml solution of each enzyme. The rat noses were excised on day 10, homogenized, and quantitative cultures were performed. Each point represents the CFU recovered from an individual rat. Bars indicate the median CFU/nose recovered from treated rats. […] Data were compiled from five independent experiments. Lyso=commercially purchased lysostaphin (AMBI, Tarrytown, N.Y.). Statistical comparisons were made with the Mann-Whitney test. SEQ ID NOs of depicted peptidoglycan hydrolase constructs: Lysostaphin (SEQ ID NO:1); Lysostaphin-PTD1-4, 6-12 (SEQ ID NOs:9, 11, 13, 15, 17, 19, 21, 23, 25, 27, 29, respectively); LysK (SEQ ID NO:3); LysK-PTD1-11 (SEQ ID NOs: 31, 33, 35, 37, 39, 41, 43, 45, 47, 49, 51, respectively); LysK-Lysostaphin Fusion K-L (SEQ ID NO:5); K-L-PTD1-4, 6-11 (SEQ ID NOs:53, 55, 57, 59, 61, 63, 65, 67, 69, 71, respectively); Lysostaphin-LysK Fusion L-K (SEQ ID NO:7).
Reduction in nasal colonization was observed when rats were challenged on day 0 with 10^7 CFU S. aureus strain ALR and then treated twice per day on days 5, 6, and 7 with 10 μl of 2% mupirocin calcium ointment (Bactroban Nasal) or petrolatum/softisan placebo. Noses from rats were homogenized and cultured quantitatively on day 10. Each point represents the CFU recovered from an individual rat, and the data were compiled from two independent experiments. Data were analyzed by the Mann-Whitney test, and horizontal lines represent median values. Mupirocin reduced colonization ˜98% compared to the placebo control.
The rat nasal colonization model is an adaptation of the mouse nasal colonization model that we described previously (Schaffer et al. 2006. Infect. Immun. 74:2145-2153). All animal experiments were conducted in accordance with a protocol approved by the appropriate Institutional Animal Care and Use Committees. Wistar rats (5 to 6 wks of age) were obtained from Charles River Laboratories (Wilmington, Mass.) and given food and water ad libitum. The animals were housed two per cage in a modified barrier facility under viral antibody-free conditions. The rats were given drinking water containing streptomycin sulfate (0.5 g/liter; Sigma) 1 day prior to bacterial inoculation and for the course of the experiment. The drinking water and cages were changed three times per week. […]

S. aureus strain Newman = type: cell-based; details: tenth round compared to first exposure
Experimental: For the MIC repeated exposure method, MIC determinations were performed with S. aureus strain Newman. 100 μl of S. aureus strain Newman culture that survived at ½ the MIC (the first well with visible growth) for each round was inoculated into 5 ml TSB and cultivated to mid-log phase growth. This culture was used as the inoculum for the next round of MIC exposure (overnight growth), and the cycle was repeated for 10 rounds.
Development of resistance to the triple-acting fusion enzymes was tested on S. aureus strain Newman and compared to both parental enzymes applied individually or simultaneously. […] Survivors of the ten round exposure to peptidoglycan hydrolase were passaged five times in medium with no peptidoglycan hydrolase added. […] We compared our triple-acting fusions to small molecule antibiotics in similar assays.

S. aureus Newbould 305 [2] = assay: Turbidity reduction assay; type: cell-based; details: 1 μM enzyme, cells at OD600nm 1.0, FIG. 6a
Experimental: (§1) FIG. 6a depicts the specific activity of peptidoglycan hydrolase fusion constructs in vitro in a turbidity reduction assay with S. aureus Newbould 305 resuspended in lysis buffer to an OD600nm of 1.0 and treated with 1 μM final concentrations of each peptidoglycan hydrolase. The maximum specific activity for three experiments are represented as an average with SEM error bars. FIG. 6b depicts the bacterial burden in mice with mastitis treated with recombinant peptidoglycan hydrolases. Colony Forming Units (CFUs) from infected murine mammary glands following a single treatment with 50 μl of 25 μM peptidoglycan hydrolase (1.25 nmol). Each data point represents the average of duplicate bacterial platings. The horizontal bars represent the average CFU/mg for each group. FIG. 6c illustrates the TNFα response in mice with mastitis that were treated with peptidoglycan hydrolases. Data represents a minimum of 7 measurements in duplicate. Log TNFα was used for statistical analysis. Single asterisks indicate a significant difference from buffer control (p<0.05); double asterisks indicate a significant difference from the parental enzyme (p<0.05).
FIG. 7 depicts a turbidity reduction assay of select peptidoglycan hydrolases against S. aureus Newbould 305. Bacterial cells were resuspended in lysis buffer to an OD600nm of 1.0 and lysed with 1 μM final concentrations of each peptidoglycan hydrolase. The maximum rate of ΔOD of three experiments are represented as an average with error bars representing SEM. Double asterisks indicate significant difference from parental. Mean comparisons were performed with one way ANOVA (P=3.3×10^−5) with t test post hoc analysis with Sidák adjusted alpha (p<0.01).

S. aureus Newbould 305 [3] = assay: Murine model of mastitis, bacterial load; type: in vivo, C57BL6/SJL mice; details: single 1.25 nmoles intramammary infusion 30 minutes post infection, 18 h
Experimental: as §1
To evaluate the efficacy of purified, individually administered peptidoglycan hydrolases in a murine model of bovine mastitis, female C57BL6/SJL mice were challenged by the intramammary route with 100 CFU S. aureus Newbould 305 in 50 μl buffer. A single 1.25 nmoles intramammary infusion of each desired peptidoglycan hydrolase (50 μl of a 25 μM solution) or 50 μl PBS was given 30 minutes post infection [with up to six glands treated per animal, each gland receiving a unique treatment] as described earlier (Schmelcher et al. 2012. Appl. Environ. Microbiol. 78:2297-2305; Kerr et al. 2001. Nat. Biotechnol. 19:66-70). Dams were euthanized 18 h post infusion, the mammary glands were aseptically dissected, and portions of the gland were used for determination of bacterial load and TNFα concentrations, as described previously (Schmelcher et al., supra).
Statistical analysis: The variables were analyzed as two-factor mixed models with Treatment as the factor and Mouse as random Blocks. This model […] within mouse correlations. Log(TNFα) was used. The variance grouping technique was used for log CFU and log TNFα to correct for variance heterogeneity. Means comparisons were done with Sidak adjusted p-values so that the experiment-wise error was 0.05. Log(TNFα) is back-transformed to the original units for graphing.

1-PTD12: lysostaphin with PTD 12 (TAT 49-57); SEQ ID NO:29
intracellular S. aureus CFUs relative to gentamicin only control [1]: reduce the intracellular S. aureus strain ISP479C

C/C(=C\C(=O)OCCCCCCCCC(=O)O)C[C@@H]1OC[C@H](C[C@@H]2O[C@H]2[C@@H](C)[C@H](C)O)[C@@H](O)[C@H]1O [Mupirocin, mupirocin, reference compound]
reduction in nasal colonization compared to placebo control (S. aureus strain ALR; 10 μl of 2% mupirocin calcium ointment twice per day on days 5, 6, 7, separate experiment): 98%

[H]/N=C(/N)N[C@H]1[C@H](O)[C@@H](O)[C@H](O[C@@H]2O[C@@H](C)[C@](O)(C=O)[C@H]2O[C@@H]2O[C@@H](CO)[C@H](O)[C@@H](O)[C@@H]2NC)[C@@H](N/C(N)=N\[H])[C@@H]1O [streptomycin, reference compound]
increase in MIC after 10 rounds of sub-lethal exposure (S. aureus strain Newman): 13 fold

L-PTD9: lysostaphin with PTD 9 (TAT 48-60); SEQ ID NO:23
turbidity reduction (in vitro lytic) activity (S. aureus Newbould 305 [2]): virtually inactive | turbidity reduction (in vitro lytic) activity (S. aureus Newbould 305 [2]; listed as 1-PTD9): reduced the in vitro activity | bacterial load / clearance of mammary glands (in words) (S. aureus Newbould 305 [3]): capable of reducing bacterial load within the mouse mammary glands relative to the PBS buffer control

Trimethoprim/sulfamethoxazole [reference compound]
increase in MIC after 10 rounds of sub-lethal exposure (S. aureus strain Newman): 6 fold

lysostaphin (AMBI, Tarrytown, N.Y.): commercially purchased lysostaphin (AMBI, Tarrytown, N.Y.)
decrease in CFU/nose (nasal colonization) compared to rats treated with buffer (S. aureus strain ALR; 200 μg intranasally twice a day on days 5, 6, 7, noses cultured day 10): 87%
